Measurements from patent US5861410A, “Tetrahydro-beta-carbolines” (Eli Lilly and Company, priority 1997, dated 1999).
Counter-ions that a name gives are not always drawn.

Legend:
5-HT1c receptor = molecular target: T1, 5-HT1c receptor (Bos taurus, UniProt A0AAA9SBU1); test: Assay for 5-HT1c affinity, radioligand binding (selectivity against 5-HT2 receptor assay); design: species or system beef; settings: low IC50 in the 5-HT1c receptor assay and a higher IC50 in the 5-HT2 receptor assay
T1 sequence (A0AAA9SBU1 33-457): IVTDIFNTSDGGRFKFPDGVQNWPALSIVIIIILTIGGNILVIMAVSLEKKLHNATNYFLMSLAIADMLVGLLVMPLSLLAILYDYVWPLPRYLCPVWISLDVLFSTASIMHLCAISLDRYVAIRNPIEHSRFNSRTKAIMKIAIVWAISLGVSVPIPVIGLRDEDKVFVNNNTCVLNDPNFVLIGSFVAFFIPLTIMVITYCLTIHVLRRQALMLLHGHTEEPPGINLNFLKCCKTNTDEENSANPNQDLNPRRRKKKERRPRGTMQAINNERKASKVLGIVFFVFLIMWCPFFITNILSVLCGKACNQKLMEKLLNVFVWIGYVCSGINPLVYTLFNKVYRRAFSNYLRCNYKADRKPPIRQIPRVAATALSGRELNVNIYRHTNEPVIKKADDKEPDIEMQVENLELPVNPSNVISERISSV
Method: Beef brain was removed immediately after slaughter, and choroid plexus were dissected over ice. […] The brain of each was immediately removed and the cerebral cortex was dissected over ice. Tissues were homogenized in 9 volumes of 0.32 mol/L sucrose and centrifuged at 1,000×g for 10 minutes. The supernatant was centrifuged at 17,000 x g for 20 minutes. The pellet was suspended in 100 volumes of 50 mM Tris-HCl (pH7.4), incubated at 37° C. for 10 minutes and centrifuged at 50,000×g for 10 minutes, and the process was repeated three times. The final pellets were frozen at -70° C. and used within 2 weeks. Pellets were rehydrated with physiological buffer prior to use.
For 5-HT1c receptor assays increasing concentrations of experimental compound, 50 mM Tris HCl buffer pH 7.4 , and tritiated mesulergine (2.0 nM) (^3 H ligand) were combined in polystyrene tubes at room temperature. The reaction was initiated by the addition of the resuspended choroid plexus tissue which had been preincubated at 37° C. for 20 minutes. The reaction mixture was incubated in a 37° C. water bath for 15 minutes.
The reactions were terminated by rapid filtration, (Brandel Cell Harvestor), through Whatman GF/B glass filters that had been presoaked in Tris buffer pH 7.4. The filters were then washed 2 times with 5 ml of ice cold Tris buffer pH 7.4. Washed filters were placed in scintillation vials and 10 ml RedySolv, (Brandel), was added and samples were counted in a Searle D-300 beta counter. Means and standard error statistics were calculated for triplicate experimental determinations in certain cases. Mean values were obtained from three or more separate determinations. The incubation time for the reaction mixture was 15 minutes at 37° C.

5HT2B = molecular target: T2, 5HT2B (Homo sapiens, UniProt P41595); test: Cell assay using human cells, 5HT2B (radioligand binding); settings: Table I
T2 construct: expressed in transfected cells
T2 sequence (P41595 whole entry): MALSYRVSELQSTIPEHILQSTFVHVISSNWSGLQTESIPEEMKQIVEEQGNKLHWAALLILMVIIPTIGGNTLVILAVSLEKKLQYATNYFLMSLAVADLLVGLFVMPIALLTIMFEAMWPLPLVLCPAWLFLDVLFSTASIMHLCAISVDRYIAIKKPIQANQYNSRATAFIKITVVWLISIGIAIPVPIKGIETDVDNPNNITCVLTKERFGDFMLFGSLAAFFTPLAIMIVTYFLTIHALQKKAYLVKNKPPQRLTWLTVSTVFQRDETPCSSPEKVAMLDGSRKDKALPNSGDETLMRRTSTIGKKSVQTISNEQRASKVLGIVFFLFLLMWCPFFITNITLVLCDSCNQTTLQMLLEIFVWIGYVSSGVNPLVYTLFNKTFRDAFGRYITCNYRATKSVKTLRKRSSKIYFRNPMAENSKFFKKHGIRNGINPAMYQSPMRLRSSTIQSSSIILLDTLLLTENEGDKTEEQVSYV

5HT2A = molecular target: T3, 5HT2A (Homo sapiens, UniProt P28223); test: Cell assay using human cells, 5HT2A; assay type: binding; settings: Table I
T3 construct: expressed in transfected cells
T3 sequence (P28223 whole entry): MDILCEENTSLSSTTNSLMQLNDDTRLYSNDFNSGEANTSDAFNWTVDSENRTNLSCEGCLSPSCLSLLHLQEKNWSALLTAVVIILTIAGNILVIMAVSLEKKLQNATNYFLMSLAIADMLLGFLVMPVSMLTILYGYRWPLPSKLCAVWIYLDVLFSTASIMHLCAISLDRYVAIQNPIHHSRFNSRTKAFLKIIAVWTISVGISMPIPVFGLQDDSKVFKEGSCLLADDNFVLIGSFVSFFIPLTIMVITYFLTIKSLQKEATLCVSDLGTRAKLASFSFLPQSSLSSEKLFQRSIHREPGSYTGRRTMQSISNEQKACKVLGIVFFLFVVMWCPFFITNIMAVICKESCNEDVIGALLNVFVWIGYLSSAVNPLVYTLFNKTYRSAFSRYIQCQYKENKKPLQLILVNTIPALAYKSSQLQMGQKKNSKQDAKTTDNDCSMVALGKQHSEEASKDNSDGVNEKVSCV
Method: (§1) The Kd and Bmax values from the saturation assays were determined for best fit to a one-site or a two-site binding model using a partial F-test. De Lean, A., A. A. Hancock, and R. J. Lefkowitz, Mol. Pharmacol. 21:5-16 (1981). The following equation was used for a one-site binding model, [formula] where Bound=amount of [^3 H]5-HT specifically bound, Bmax =maximum number of binding sites, Kd =equilibrium dissociation constant and [L]=free concentration of [^3 H]5-HT, or a two-site binding model, [formula] where Bound=amount of [^3 H]5-HT specifically bound, Bmax1 =maximum number of high affinity binding sites, Bmax2 =maximum number of low affinity binding sites, Kd1 =equilibrium dissociation constant for the high affinity site, Kd2 =equilibrium dissociation constant for the low affinity site and [L]=free concentration of [^3 H]5-HT. The IC50 values from the competition assays, the binding parameters for the IP3 standard curve and the EC50 and Emax values from the IP3 assays were determined by nonlinear regression analysis of four parameter logistic equations (Systat, Systat Inc, Evanston, Ill.). De Lean, A., A. A. Hancock, and R. J. Lefkowitz, Mol. Pharmacol., 21:5-16 (1981). The IC50 values were converted to Ki values using the Cheng-Prusoff equation. Cheng, Y., and W. H. Prusoff, Biochem. Pharmacol., 22:3099-3108 (1973).
(§2) The following Cell assays use Human Cells

5HT2C = molecular target: T4, 5HT2C (Homo sapiens, UniProt P28335); test: Cell assay using human cells, 5HT2C; assay type: binding; settings: Table I
T4 construct: expressed in transfected cells
T4 sequence (P28335 33-458): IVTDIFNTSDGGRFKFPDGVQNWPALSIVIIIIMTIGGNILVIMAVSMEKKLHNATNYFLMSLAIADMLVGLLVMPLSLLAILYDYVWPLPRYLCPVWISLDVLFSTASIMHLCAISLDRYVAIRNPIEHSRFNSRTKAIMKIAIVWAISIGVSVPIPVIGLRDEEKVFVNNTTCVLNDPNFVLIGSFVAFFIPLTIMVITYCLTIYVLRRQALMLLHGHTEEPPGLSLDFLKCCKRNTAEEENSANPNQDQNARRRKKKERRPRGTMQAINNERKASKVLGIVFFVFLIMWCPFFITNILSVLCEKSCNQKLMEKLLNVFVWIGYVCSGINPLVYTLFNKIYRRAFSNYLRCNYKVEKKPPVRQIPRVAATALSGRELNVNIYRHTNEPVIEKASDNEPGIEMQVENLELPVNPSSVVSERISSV
Method: as §1, §2

Cc1ccc2[nH]cc([C@@H]3CCCC[C@H]3N)c2c1.Cl (relative stereo) [Example 3, Trans-3-(2-amino-cyclohexyl)-5-methylindole, hydrochloride]
5-HT1c selective (5-HT1c receptor): particularly 5-HT1c selective

Cl.N[C@@H]1CCCC[C@H]1c1c[nH]c2c(Cl)cccc12 (relative stereo) [Example 4, Trans-3-(2-amino-cyclohexyl)-7-chloroindole, hydrochloride]
5-HT1c selective (5-HT1c receptor): particularly 5-HT1c selective

Cc1ccc2[nH]c3c(c2c1)[C@@H]1CCCC[C@H]1NC3 (relative stereo) [Example 6, Trans-10-methyl-2,3,4,4a,5,6,7,11c-octahydro-1H-indolo[2,3-c] quinoline, hydrochloride]
5-HT1c selective (5-HT1c receptor): particularly 5-HT1c selective

Clc1cccc2c3c([nH]c12)CN[C@@H]1CCCC[C@@H]31 (relative stereo) [Example 7, Trans-8-chloro-2,3,4,4a,5,6,7,11c-octahydro-1 H-indolo[2,3-c]quinoline, hydrochloride]
Ki (5HT2B): 668 nM
Ki (5HT2A): 278 nM
Ki (5HT2C): 977 nM
5-HT1c selective (5-HT1c receptor): particularly 5-HT1c selective

COc1ccc(CC2N[C@@H]3CCC[C@H]3c3c2[nH]c2ccc(C)cc32)cc1OC (relative stereo) [Example 8, Trans-5-(3,4-dimethoxybenzyl)-9-methyl-1,2,3,4,4a,5,6,10c-octahydrocyclopenta[a]pyrido [3,4-b]indole, hydrochloride]
Ki (5HT2B): 9.56 nM
Ki (5HT2A): 124 nM
Ki (5HT2C): 221 nM

COc1ccc(CC2N[C@@H]3CCC[C@H]3c3c2[nH]c2c(Cl)cccc32)cc1OC (relative stereo) [Example 9, Trans-7-chloro-5-(3,4-dimethoxybenzyl)-1,2,3,4,4a,5,6,10c-octahydrocyclopenta[a]pyrido [3,4-b]indole, hydrochloride]
Ki (5HT2B): 52.5 nM
Ki (5HT2A): 53.6 nM
Ki (5HT2C): 203 nM

COc1ccc(CC2N[C@@H]3CCC[C@H]3c3c2[nH]c2c(C)cc(C)cc32)cc1OC (relative stereo) [Example 10, Trans-5-(3,4-dimethoxybenzyl)-7,9-dimethyl-1,2,3,4,4a,5,6,10c-octahydrocyclopenta[a]pyrido [3,4-b]indole, hydrochloride]
Ki (5HT2B): 106 nM
Ki (5HT2A): 556 nM
Ki (5HT2C): 1120 nM
5-HT1c selective (5-HT1c receptor): particularly 5-HT1c selective

COc1ccc(CC2N[C@@H]3CCCC[C@H]3c3c2[nH]c2ccc(C)cc32)cc1OC (relative stereo) [Example 11, Trans-6-(3,4-dimethoxybenzyl)-10-methyl-2,3,4,4a,5,6,7,11c-octahydro-1H-indolo[2,3-c]quinoline, hydrochloride]
Ki (5HT2B): 16.4 nM
Ki (5HT2A): 293 nM
Ki (5HT2C): 352 nM

COc1ccc(CC2N[C@@H]3CCCC[C@H]3c3c2[nH]c2c(Cl)cccc32)cc1OC (relative stereo) [Example 12, Trans-8-chloro-6-(3,4-dimethoxybenzyl)-2,3,4,4a,5,6,7,11c-octahydro-1H-indolo[2,3-c]quinoline, hydrochloride]
Ki (5HT2B): 121 nM
Ki (5HT2A): 172 nM
Ki (5HT2C): 783 nM

COc1ccc(CC2N[C@@H]3CCCC[C@H]3c3c2[nH]c2c(C)cc(C)cc32)cc1OC (relative stereo) [Example 13, Trans-6-(3,4-dimethoxybenzyl)-8,10-dimethyl-2,3,4,4a,5,6,7,11c-octahydro-1H-indolo[2,3-c]quinoline, hydrochloride]
Ki (5HT2B): 168 nM
Ki (5HT2A): 917 nM
Ki (5HT2C): 2170 nM
5-HT1c selective (5-HT1c receptor): particularly 5-HT1c selective

COc1ccc(CC2N[C@@H]3CCCCC[C@H]3c3c2[nH]c2ccc(C)cc32)cc1OC (relative stereo) [Example 14, Trans-7-(3,4-dimethoxybenzyl)-11-methyl-1,2,3,4,5,5a,6,7,8,12a-decahydrocyclohepta[a]pyrido[3,4-b]indole, hydrochloride]
Ki (5HT2B): 3520 nM
Ki (5HT2A): 1450 nM
Ki (5HT2C): 9250 nM

Cc1ccc2[nH]c3c(c2c1)[C@@H]1CCC[C@H]1NC3Cc1cccc2ccccc12 (relative stereo) [Example 15, Trans-9-methyl-5-(1-naphthylmethyl)-1,2,3,4,4a,5,6,10c-octahydrocyclopenta[a]pyrido [3,4]-blindole, hydrochloride]
Ki (5HT2A): 33 nM
Ki (5HT2C): 52.1 nM

Cc1ccc2[nH]c3c(c2c1)[C@@H]1CCCC[C@H]1NC3Cc1cccc2ccccc12 (relative stereo) [Example 16, Trans-10-methyl-6-(1-naphthylmethyl)-2,3,4,4a,5,6,7,11c-octahydro-1H-indolo[2,3-c]quinoline, hydrochloride]
5-HT1c selective (5-HT1c receptor): particularly 5-HT1c selective

Cc1cc(C)c2[nH]c3c(c2c1)[C@@H]1CCCC[C@H]1NC3Cc1cccc2ccccc12 (relative stereo) [Example 17, Trans-8,10-dimethyl-6-(1-naphthylmethyl)-2,3,4,4a,5,6,7,11c-octahydro-1H-indolo[2,3-c]quinoline, hydrochloride]
Ki (5HT2B): 367 nM
Ki (5HT2A): 264 nM
Ki (5HT2C): 1110 nM

COc1cc2c(cc1OC)CC1(CC2)N[C@H]2CCCC[C@@H]2c2c1[nH]c1ccc(C)cc21 (relative stereo) [Example 18, Trans-spiro-6,6-[2-(3,4-dimethoxy)-1,2,3,4-tetrahydronaphthyl]-10-methyl-2,3,4,4a,5,6,7,11a-octahydro-1 H-indolo[2,3-c]quinidine, hydrochloride]
Ki (5HT2B; hydrochloride): 178 nM
Ki (5HT2A; hydrochloride): 363 nM
Ki (5HT2C; hydrochloride): 325 nM

COc1cc2c(cc1OC)CC1(CC2)N[C@H]2CCCC[C@@H]2c2c1[nH]c1ccc(C)cc21 (single isomer, unassigned; isomer 18) [Isomer 18(1), Trans-spiro-6,6-[2-(3,4-dimethoxy)-1,2,3,4-tetrahydronaphthyl]-10-methyl-2,3,4,4a,5,6,7,11a-octahydro-1 H-indolo[2,3-c]quinidine, hydrochloride]
Ki (5HT2B; hydrochloride): 143 nM
Ki (5HT2A; hydrochloride): 153 nM
Ki (5HT2C; hydrochloride): 138 nM

COc1cc2c(cc1OC)CC1(CC2)N[C@H]2CCCC[C@@H]2c2c1[nH]c1ccc(C)cc21 (single isomer, unassigned; isomer 18) [Isomer 18(2), Trans-spiro-6,6-[2-(3,4-dimethoxy)-1,2,3,4-tetrahydronaphthyl]-10-methyl-2,3,4,4a,5,6,7,11a-octahydro-1 H-indolo[2,3-c]quinidine, hydrochloride]
Ki (5HT2B; hydrochloride): 2890 nM
Ki (5HT2A; hydrochloride): 1970 nM
Ki (5HT2C; hydrochloride): 6210 nM
